Data published in patent publication US20110190162A1, “METHOD OF NUCLEIC ACID DELIVERY INTO THREE-DIMENSIONAL CELL CULTURE ARRAYS” (priority 2009, published 2011).
pIC50: −log10 of the molar value.

Experiments:
[1] = system: parent HepG2 cells (control); assay: Acetaminophen toxicity, cell viability; type: cell-based; details: Homo sapiens, 24 h exposure, read-out: calculated IC50 (cell viability)
[2] = Metabolism-induced toxicity assay, cell viability; type: cell-based; details: human, HepG2 cells infected with Ad-3A4 (expressing CYP3A4); HepG2 transfected with Ad-3A4 at 40 MOI, 24 h exposure; read-out: calculated IC50 (cell viability)
Procedure: Metabolism-induced toxicity assay was performed with acetaminophen on HepG2 cells expressing CYP3A4. After transfecting HepG2 cells with Ad-3A4 at 40 MOI, HepG2 cells were exposed to acetaminophen at varying concentrations for 24 h. HepG2 cell viability decreased as acetaminophen concentration increased.

## CC(=O)Nc1ccc(O)cc1 [acetaminophen]
[1]
  pIC50: 1.76
[2]
  IC50 at 24 h: 7.3 mM
